One may read the IC50 as the concentration that gives 50% inhibition.

A value given as a limit tells only on which side of the number the result lay.

IC50 data for 21 compounds are collected here from US20240391882A1 (Mirati Therapeutics, Inc., priority 2023, published 2024).

Assay [1] deals with pAKT in T47D (PI3Kα H1047R mutant) cells. The assay is described as follows: Inhibition of pAKT (alphaLISA Surefire Ultra AKT 1/2/3 pS473) in T47D cells. Format: cell-based. The settings on record: Homo sapiens; T47D (PI3Kα H1047R mutant) cells, 24 hr compound incubation, alphaLISA pS473; read-out: T47D (H1047R) pAKT 24 hr (IC50). As for the experimental part: The ability of a compound of Formula (I) to inhibit the formation of pAKT was measured using alphaLISA Surefire Ultra AKT 1/2/3 (pS473) Assay Kit (#ALSU-PAKT-B50K) was obtained from Perkin Elmer (Waltham, MA).
To prepare assay plates for pAKT alphaLISA assays, cells were trypsinized, resuspended in fresh media, and viable cells were counted utilizing trypan blue exclusion. Prior to seeding, cells were washed with PBS and resuspended in HBSS (Gibco, #14025092). T47D (12,000/w), SKBR3 (12,000/w), or MKN1 (24,000/w) cells were seeded at 12 μl per well in a solid white flat bottom 384 cell culture plate (Perkin Elmer #6007680).
Immediately after seeding, cells were dosed using an Echo Liquid Handler (Beckman Coulter) with compounds at a 10.4 μm starting concentration and serially diluted (1:4) for a total of 10 concentrations. 14 vehicle (DMSO) and 14 positive control (Alpelisib @3.125 μm) wells were included on each assay plate. Cells were incubated with the compounds (solubilized in DMSO) for approximately 24 hours at 37° C. After 24 hours of treatment, cells were lysed with 3 μl of the 5× lysis buffer (provided and incubated at room temperature for 15 min on a microtiter plate shaker). Once cells were sufficiently lysed, 7.5 μl of the acceptor bead mix (made using the manufacturers recommended dilutions) was added to each well and left on the microtiter plate shaker for 1 min prior to incubating plates at room temperature for 1 hour, in the absence of light. After 1 hour of incubation with the acceptor bead mix, 7.5 μl of the donor bead mix (made using the manufacturers recommended dilutions) was added to each well and left on the microtiter plate shaker for 1 min prior to incubating plates at room temperature overnight in the absence of light. Plates were then imaged the following day using a CLARIOstar microplate reader (BMG Labtech, Germany).
Percent of control values were calculated by subtracting the average signal from the positive control (alpelisib) treated wells from all treated wells (including DMSO control wells) and then divided by the average signal from the vehicle DMSO treated control wells. Percent of vehicle control values were plotted as log(inhibitor) vs. response—Variable slope (four parameters) for curve fitting and IC50 values were determined using XLfit.
(In general: In Alpha technology, singlet oxygen from a donor bead excites a nearby acceptor bead.)

For assay [2], the system named is T47D (PI3Kα H1047R mutant) cells. The assay is described as follows: Cell viability (CellTiter-Glo 2.0) in T47D cells. In kind it is cell-based. Particulars: Homo sapiens, T47D, 72 h, approximately 72 hours. As for the experimental part:
This Example illustrates that representative compounds of the invention decrease the viability of cells.
The ability of a compound of Formula (I) to decrease the viability of cells was measured using CellTiter-Glo 2.0 (CTG) Luminescent Cell Viability Assay (#G9241) obtained from Promega (Madison, WI).
To prepare assay plates for viability assays, cells were trypsinized, resuspended in fresh media, and viable cells were counted utilizing trypan blue exclusion. T47D, SKBR3, or MKN1 cells were seeded at 1000 cells in 30 μl per well in a solid white flat bottom 384 cell culture plate (Perkin Elmer #6007680) and incubated at 37° C. overnight.
Assay day 1, cells were dosed using an Echo Liquid Handler (Beckman Coulter) with compounds at a 10 μm starting concentration and serially diluted (1:4) for a total of 10 concentrations. Cells were incubated for approximately 72 hours with the compounds (solubilized in DMSO) at 37° C. After 72 hours of treatment, cell plates were equilibrated to room temperature before adding 15 μl of CTG to each well, plates were then covered in aluminum foil to protect from light, incubated at room temperature for 30 minutes on a microtiter plate shaker, and luminescence readings were collected using a CLARIOstar microplate reader (BMG Labtech, Germany). Percent of vehicle control values were plotted as log(inhibitor) vs. response—Variable slope (four parameters) for curve fitting and IC50 values were determined using XLfit.
(Cellular ATP, detected with luciferase, serves as a proxy for viable cell number.)

For `Cc1cc([C@@H](C)Nc2ccc(Cl)nc2C(=O)O)c2nc(N3CC[C@H](CO)C3)c(C#N)nc2c1` [Example 158, 6-chloro-3-(((R)-1-(2-cyano-3-((S)-3-(hydroxymethyl)pyrrolidin-1-yl)-7-methylquinoxalin-5-yl)ethyl)amino)picolinic acid], the IC50 in assay [1] was 3.6 nM; in assay [2], 88.1 nM.
As to `Cc1cc([C@@H](C)Nc2ccc(Cl)nc2C(=O)O)c2nc(N3C[C@H](F)[C@@H](F)C3)c(C#N)nc2c1` [Example 178, 6-chloro-3-(((R)-1-(2-cyano-3-((3S,4S)-3,4-difluoropyrrolidin-1-yl)-7-methylquinoxalin-5-yl)ethyl)amino)picolinic acid], the IC50 in assay [1] came to 0.5 nM; in assay [2] it was 24.4 nM.
The like results for `COC[C@]1(F)CCN(c2nc3c([C@@H](C)Nc4ccc(Cl)nc4C(=O)O)cc(C)cc3nc2C#N)C1` (single isomer, unassigned) [Example 165] were, in that order, 5.6 nM and 97 nM.
`Cc1cc([C@@H](C)Nc2nccnc2C(=O)O)c2nc(N3CCC(F)(F)CC3)c(C#N)nc2c1` [Example 113, (R)-3-((1-(2-cyano-3-(4,4-difluoropiperidin-1-yl)-7-methylquinoxalin-5-yl)ethyl)amino)pyrazine-2-carboxylic acid]: the IC50 in assay [1] was greater than 10400 nM; in assay [2], 1170 nM.
Turning to `Cc1cc([C@@H](C)Nc2ccc(Cl)nc2C(=O)O)c2nc(N3C[C@H]4C[C@@H]3CO4)c(C#N)nc2c1` [Example 174, 3-(((R)-1-(3-((1R,4R)-2-oxa-5-azabicyclo[2.2.1]heptan-5-yl)-2-cyano-7-methylquinoxalin-5-yl)ethyl)amino)-6-chloropicolinic acid], the results for the IC50 in assay [1] and in assay [2] were 4.4 nM and 36.6 nM, respectively.
The like results for `Cc1cc([C@@H](C)Nc2ccc(Cl)nc2C(=O)O)c2nc(N3CCO[C@@H](C)C3)c(C#N)nc2c1` [Example 260, 6-chloro-3-(((R)-1-(2-cyano-7-methyl-3-((S)-2-methylmorpholino)quinoxalin-5-yl)ethyl)amino)picolinic acid] were, in that order, 1.9 nM and 73.8 nM.
The like results for `Cc1cc([C@@H](C)Nc2ccc(Cl)nc2C(=O)O)c2nc(N3C[C@@H]4[C@H](CO)[C@@H]4C3)c(C#N)nc2c1` [Example 163, 6-chloro-3-(((R)-1-(2-cyano-3-((1R,5S,6S)-6-(hydroxymethyl)-3-azabicyclo[3.1.0]hexan-3-yl)-7-methylquinoxalin-5-yl)ethyl)amino)picolinic acid] were, in that order, 6.8 nM and 191 nM.
The like results for `Cc1cc([C@@H](C)Nc2ccc(Cl)nc2C(=O)O)c2nc(N3CC[C@@H](CO)C3)c(C#N)nc2c1` [Example 159, 6-chloro-3-(((R)-1-(2-cyano-3-((R)-3-(hydroxymethyl)pyrrolidin-1-yl)-7-methylquinoxalin-5-yl)ethyl)amino)picolinic acid] were, in that order, 2.6 nM and 70.3 nM.
As to `Cc1cc([C@@H](C)Nc2ccc(Cl)nc2C(=O)O)c2nc(N3CCC(c4ccnn4C)CC3)c(C#N)nc2c1` [Example 126, (R)-6-chloro-3-((1-(2-cyano-7-methyl-3-(4-(1-methyl-1H-pyrazol-5-yl)piperidin-1-yl)quinoxalin-5-yl)ethyl)amino)picolinic acid], the values for the IC50 in assay [1] and in assay [2] were 0.8 nM and 24.8 nM, respectively.
The like results for `Cc1cc([C@@H](C)Nc2ccc(Cl)nc2C(=O)O)c2nc(NCCC(F)(F)F)c(C#N)nc2c1` [Example 124, (R)-6-chloro-3-((1-(2-cyano-7-methyl-3-((3,3,3-trifluoropropyl)amino)quinoxalin-5-yl)ethyl)amino)picolinic acid] were, in that order, 1.9 nM and 126 nM.
For the compound `Cc1cc([C@@H](C)Nc2ccc(Cl)nc2C(=O)O)c2nc(N3CC[C@@H](F)C3)c(C#N)nc2c1` [Example 177, 6-chloro-3-(((R)-1-(2-cyano-3-((R)-3-fluoropyrrolidin-1-yl)-7-methylquinoxalin-5-yl)ethyl)amino)picolinic acid], the IC50 in assay [1] was determined as 0.5 nM; in assay [2], 19.4 nM.
Taken in the same sequence, the figures for `Cc1cc([C@@H](C)Nc2ccc(Cl)nc2C(=O)O)c2nc(N3CC[C@H](F)C3)c(C#N)nc2c1` [Example 176, 6-chloro-3-(((R)-1-(2-cyano-3-((S)-3-fluoropyrrolidin-1-yl)-7-methylquinoxalin-5-yl)ethyl)amino)picolinic acid] were 1.7 nM and 34.5 nM.
Taken in the same sequence, the figures for `Cc1cc([C@@H](C)Nc2ccc(Cl)nc2C(=O)O)c2nc(N3CCc4ccncc4C3)c(C#N)nc2c1` [Example 162, (R)-6-chloro-3-((1-(2-cyano-3-(3,4-dihydro-2,7-naphthyridin-2(1H)-yl)-7-methylquinoxalin-5-yl)ethyl)amino)picolinic acid] were 1.6 nM and 35 nM.
On to `COC[C@@H]1[C@H]2CN(c3nc4c([C@@H](C)Nc5ccc(Cl)nc5C(=O)O)cc(C)cc4nc3C#N)C[C@@H]12` [Example 166, 6-chloro-3-(((R)-1-(2-cyano-3-((1R,5S,6R)-6-(methoxymethyl)-3-azabicyclo[3.1.0]hexan-3-yl)-7-methylquinoxalin-5-yl)ethyl)amino)picolinic acid], for which the IC50 in assay [1] came to 1.2 nM; in assay [2], 38.6 nM.
The like results for `Cc1cc([C@@H](C)Nc2ccc(Cl)nc2C(=O)O)c2nc(N3CCN(c4ccc(C(F)(F)F)cn4)CC3)c(C#N)nc2c1` [Example 179, (R)-6-chloro-3-((1-(2-cyano-7-methyl-3-(4-(5-(trifluoromethyl)pyridin-2-yl)piperazin-1-yl)quinoxalin-5-yl)ethyl)amino)picolinic acid] were, in that order, 3.9 nM and 77.3 nM.
Take `Cc1cc([C@@H](C)Nc2ccc(Cl)nc2C(=O)O)c2nc(N3C4CCC3COC4)c(C#N)nc2c1` [Example 120, 3-(((1R)-1-(3-(3-oxa-8-azabicyclo[3.2.1]octan-8-yl)-2-cyano-7-methylquinoxalin-5-yl)ethyl)amino)-6-chloropicolinic acid]: the figures for the IC50 in assay [1] and in assay [2] were 2.4 nM and 56.4 nM, respectively.
The like results for `COC[C@@]1(F)CCN(c2nc3c([C@@H](C)Nc4ccc(Cl)nc4C(=O)O)cc(C)cc3nc2C#N)C1` (single isomer, unassigned) [Example 164] were, in that order, 2.1 nM and 55 nM.
Taken in the same sequence, the figures for `COC(=O)c1nc(Cl)ccc1N[C@H](C)c1cc(C)cc2nc(C#N)c(N3CC[C@](C)(F)C3)nc12` (single isomer, unassigned) [Example 181] were 1.7 nM and 44 nM.
Taken in the same sequence, the figures for `Cc1cc([C@@H](C)Nc2ccc(Cl)nc2C(=O)O)c2nc(NCCC(=O)N(C)C)c(C#N)nc2c1` [Example 125, (R)-6-chloro-3-((1-(2-cyano-3-((3-(dimethylamino)-3-oxopropyl)amino)-7-methylquinoxalin-5-yl)ethyl)amino)picolinic acid] were 2.7 nM and 163 nM.
`Cc1cc([C@@H](C)Nc2ccc(Cl)nc2C(=O)O)c2nc(-n3ccnc3)c(C#N)nc2c1` [Example 117, (R)-6-chloro-3-((1-(2-cyano-3-(1H-imidazol-1-yl)-7-methylquinoxalin-5-yl)ethyl)amino)picolinic acid]: the IC50 was found to be 66 nM in assay [1] and 498 nM in assay [2].
Taken in the same sequence, the figures for `Cc1cc([C@@H](C)Nc2ccc(Cl)nc2C(=O)O)c2nc(N3C[C@@H]4[C@@H](CO)[C@@H]4C3)c(C#N)nc2c1` [Example 167, 6-chloro-3-(((R)-1-(2-cyano-3-((1R,5S,6R)-6-(hydroxymethyl)-3-azabicyclo[3.1.0]hexan-3-yl)-7-methylquinoxalin-5-yl)ethyl)amino)picolinic acid] were 4.6 nM and 150 nM.
